From patent US6919470B2, “Aryl and heteroaryl sulfonates” (priority 2000, dated 2005)

Experiments:
[1] = target: T1, rat CB1 receptor (Rattus norvegicus, UniProt P20272); test: Rat CB1 luciferase reporter gene test; type: cell-based; settings: rat CHOCB1 reporter cell line, forskolin-stimulated luciferase activity
T1 construct: expressed in transfected cells; host or cells: CHO (CHOluc9) luciferase reporter cells
Protocol: 1. Rats CB1 Luciferase Reporter Gene Test
Stock cultures of a rat CHOCB1 reporter cell line were prepared by the method described in WO-A-98/37061, page 55 et seq.
The following test protocol was used for the substance screening: the stock cultures were cultivated in 50% of Dulbecco's modified Eagle medium/50% F-12 (DMEM/F12) with 10% FCS at 37° C. under 10% CO2 and split 1:10 after 2 to 3 days in each case. Test cultures were seeded at 5000cells […] in 96-well plates and cultured at 37° C. for 70 hours. The cultures were then cautiously washed with phosphate-buffered saline and reconstituted with serum-free Ultra-CHO medium (Bio-Whittaker). The substances dissolved in DMSO were diluted 1× in medium and pipetted into the test cultures (maximum DMSO final concentration in test mixture: 0.5%). 20 minutes later, forskolin was added and the cultures were then incubated in an incubator at 37° C. for 3 hours. […] Immediately thereafter luciferase substrate solution (2.5 mM ATP, 0.5 mM luciferin, 0.1 mM coenzyme A, 10 mM tricine, 1.35 mM MgSO4, 15 mM DTT, pH 7.8) and briefly shaken, and the luciferase activity was measured using a Hamamatsu camera system. […]
The IC50 values were calculated using the GraphPadPrism program (Hill equation, specifically: one-site competition).

[2] = target: T2, CB1 receptor (Rattus norvegicus, UniProt P20272); test: Rat hypothermia agonism test; type: in vivo; settings: oral administration
T2 construct: from tissue; host or cells: whole animal (rat), oral dosing
T2 sequence (P20272 whole entry): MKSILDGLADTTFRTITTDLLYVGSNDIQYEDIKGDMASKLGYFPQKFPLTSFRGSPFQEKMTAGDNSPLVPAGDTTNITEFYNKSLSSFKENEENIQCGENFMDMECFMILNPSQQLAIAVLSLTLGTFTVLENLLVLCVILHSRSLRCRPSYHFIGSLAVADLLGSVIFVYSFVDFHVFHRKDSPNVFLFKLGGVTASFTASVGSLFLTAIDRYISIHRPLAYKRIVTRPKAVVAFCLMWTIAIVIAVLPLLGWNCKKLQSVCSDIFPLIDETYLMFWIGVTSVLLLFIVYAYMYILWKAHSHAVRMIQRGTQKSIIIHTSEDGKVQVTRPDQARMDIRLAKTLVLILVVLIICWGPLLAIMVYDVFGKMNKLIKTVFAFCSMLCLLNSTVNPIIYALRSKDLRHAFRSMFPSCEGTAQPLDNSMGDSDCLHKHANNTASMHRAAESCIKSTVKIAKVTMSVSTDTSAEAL
Protocol: The in vivo agonistic effect on the CB1 receptor was examined in the rat hypothermia assay.
Five minutes after determining the basal body temperature via an esophageal temperature probe, the test substance is administered (orally). A control group receives, likewise orally, only the solvent for the test substances (Cremophors EL 1-10%+distilled water). The body temperature is measured 120 and 240 minutes after oral administration. The size of the group for each dose is 5-7 animals (rats).
Rat Hypothermia Agonism Test

[3] = Pharmacokinetics in the rat; type: in vivo
Protocol: The bioavailability of the compounds according to the invention, and other pharmacokinetic parameters, can be determined in vivo in the following way:
5. Pharmacokinetics in the Rat
The substance is infused through a Braunüle in a lateral tail vein directly into the blood stream over 15 minutes. A calibrated 20 ml syringe is used for accurate administration of the chosen dose and volume. A Braun Melsungen No. 152440/1 pump is used for the infusion.
The substance is administered as bolus by gavage.
Blood samples are collected from catheterized animals jugular vein) in heparinized tubes. The blood is centrifuged and the plasma is prepared in a suitable manner for analysis (LC-MS-MS). The plasma is stored at <−15° C. until analyzed.
d) Pharmacokinetic Results of Example 2

[4] = Microsomal stability investigation (rat liver microsomes); type: in vitro ADME; settings: predicted from microsomal data
Text: The metabolic stability of the compounds according to the invention can be found in the following in vitro assay: 4. Microsomal Stability Investigation The metabolic stability of the compounds according to the invention can be measured in rat liver microsomes (in analogy to J. Pharmacol. Exp. Ther. 1997, 283. 46-58). To determine the microsomal stability and extrapolate to the maximum possible bioavailability (Fmax) owing to the first-past effect in the liver (phase 1 reactions), the substance is incubated in low concentration with microsomal protein, with addition of cofactors, at 37° C. for 15 minutes. The incubation and the sampling take place on a modified automatic pipettor from Canberra Packard. Microsomal data (rat liver microsomes) predict a maximum possible availability of up to 100%.

[5] = system: rat; test: Axotomy of sciatic branches in the rat (chronic pain model); type: in vivo; settings: orally, acute administration, 60 minutes before the test
Protocol: 7. Axotomy of Sciatic Branches in the Rat (Chronic Pain Model)
Under pentobarbital anesthesia, the trifurcation of a sciatic nerve is exposed, and the peroneal and tibial branches are axotomized after the nerves have been ligated proximal of the axotomy site. Control animals undergo a sham operation. After the operation, the axotomized animals develop chronic mechanical allodynia and thermal hyperalgesia.
The mechanical allodynia is tested, comparing with sham-operated animals, with the aid of a pressure transducer (electronic von Frey anesthesiometer, IITC Inc.-Life Science Instruments, Woodland Hills, Calif., USA).
The thermal hyperalgesia can be determined by measuring the latency time within which a rat removes a paw from the area of a radiant heat source (plantar test, Ugo Basile (Milan)).
The substance was administered by various administration routes (i.v., i.p., orally, i.t., i.c.v., transdermally) at various times before the pain testing.
Example 2 reduces the hyperalgesia in the model at a minimally effective dose of 1 mg/kg orally (acute administration, 60 minutes before the test).

[6] = system: rat; test: 6-Hydroxydopamine (6-OH-DA) lesion in the rat, staircase test; type: in vivo; settings: oral dose of 1.0 mg/kg bid
Protocol: 8.6-Hydroxydopamine (6-OH-DA) Lesion in the Rat
Degeneration of dopaminergic nigrostriatal and striatopallidal neurotransmission is the main characteristic of Parkinson's disease. The clinical picture of Parkinson's disease can be simulated to a large extent in an animal model in which the neurotoxin 6-OH-DA is injected intracerebrally in rats.
Male rats (Harlan Winkelmann, Germany; weight at start of test: 200-250 g) were used for the experiments described. The experimental animals were housed under controlled conditions (humidity, temperature) with a 12-hour light/dark cycle. Those animals not involved in an experiment had free access to water and feed.
On the day of the operation, 30 minutes before the lesion, pargyline (Sigma, St. Louis, Mo., USA; 50 mg/kg i.p.) and desmethylimipramine HCl (Sigma; 25 mg/kg i.p.) were administered to the animals in order respectively to suppress 6-hydroxydopamine metabolism and prevent uptake of 6-hydroxydopamine in noradrenergic structures. […]
After the operation, the animals were placed on a warm plate and, after regaining consciousness while being monitored, returned to their cage and received feed and water ad libitum. […]
The motor deficits after the lesion were quantified using the following test as described in the respective literature: […]

T1 sequence (P20272 whole entry): as above

SMILES	IC50 [1] [nM]	ED−1° C. (effective dose for reducing the body temperature by 1° C.) [2] [mg/kg]	AUCnorm ([3]; oral, dose 3 mg/kg) [kg·h/L]	Cmax,norm ([3]; oral, dose 3 mg/kg) [kg/L]	F ([3]; oral, dose 3 mg/kg) [%]	clearance ([3]; plasma, iv, dose 0.3 mg/kg) [mL/min/kg]	half-life ([3]; plasma, iv, dose 0.3 mg/kg) [h]	Vd ([3]; plasma, iv, dose 0.3 mg/kg, read-out: Vss) [L/kg]	Tmax ([3]; plasma, oral, dose 3 mg/kg) [h]	half-life ([3]; plasma, oral, dose 3 mg/kg) [h]	maximum possible availability (Fmax) [4]	minimally effective dose reducing the hyperalgesia [5] [mg/kg]	fine coordination of the forepaws in the staircase test [6]
CCCCCS(=O)(=O)Oc1cccc(-c2cccc(C(F)(F)F)c2)c1 [Example 3]	2.4	–	–	–	–	–	–	–	–	–	–	–	–
O=S(=O)(CCCC(F)(F)F)Oc1cccc(-c2cccc(C(F)(F)F)c2)c1 [Example 2]	–	5	0.322	0.0674	100	51.7	2.2	5.8	3	1.7	up to 100%	1	improvement in the fine coordination of the forepaws
Cc1ccnc(-c2cccc(OS(=O)(=O)CCCC(F)(F)F)c2)c1 [Example 17]	16	–	–	–	–	–	–	–	–	–	–	–	–
